One experiment deals with T1, human TRPC5 (Homo sapiens, UniProt Q9UL62).
T1 construct: expressed in transfected cells; host or cells: HEK 293
T1 sequence (Q9UL62 1-973): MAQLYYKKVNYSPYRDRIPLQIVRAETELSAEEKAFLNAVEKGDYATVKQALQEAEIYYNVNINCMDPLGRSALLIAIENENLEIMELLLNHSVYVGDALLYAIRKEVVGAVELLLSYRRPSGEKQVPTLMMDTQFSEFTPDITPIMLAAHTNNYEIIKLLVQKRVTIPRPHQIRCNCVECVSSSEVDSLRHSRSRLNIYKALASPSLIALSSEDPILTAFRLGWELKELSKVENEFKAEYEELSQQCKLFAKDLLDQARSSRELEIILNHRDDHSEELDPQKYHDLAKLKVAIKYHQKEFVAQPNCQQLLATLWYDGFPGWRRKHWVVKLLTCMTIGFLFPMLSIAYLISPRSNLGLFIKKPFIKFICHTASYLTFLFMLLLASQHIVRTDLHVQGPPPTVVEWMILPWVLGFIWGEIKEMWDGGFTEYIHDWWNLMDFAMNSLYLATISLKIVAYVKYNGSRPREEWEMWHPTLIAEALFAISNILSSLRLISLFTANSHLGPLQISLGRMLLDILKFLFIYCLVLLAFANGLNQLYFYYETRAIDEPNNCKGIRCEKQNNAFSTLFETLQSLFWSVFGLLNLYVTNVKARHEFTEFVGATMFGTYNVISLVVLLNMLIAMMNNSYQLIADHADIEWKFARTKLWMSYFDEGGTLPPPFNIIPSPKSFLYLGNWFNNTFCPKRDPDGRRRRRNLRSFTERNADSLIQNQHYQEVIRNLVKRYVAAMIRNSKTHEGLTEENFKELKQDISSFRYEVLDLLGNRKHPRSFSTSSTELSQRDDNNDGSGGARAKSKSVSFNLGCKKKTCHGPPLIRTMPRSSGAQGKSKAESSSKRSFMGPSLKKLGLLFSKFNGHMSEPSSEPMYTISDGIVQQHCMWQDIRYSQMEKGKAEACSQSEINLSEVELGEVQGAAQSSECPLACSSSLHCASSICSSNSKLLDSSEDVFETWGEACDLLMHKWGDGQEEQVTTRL
The experiment is described as follows: TRPC5 fluorescence-based assay (Ca2+ flux assay in FLIPR format), cells overexpressing TRPC5. The class given is cell-based. The note with it: 5 μM of test compound, following Carbachol stimulation.

Another experiment concerns the target T2, human TRPC6 (Homo sapiens, UniProt Q9Y210).
T2 construct: expressed in transfected cells; host or cells: HEK 293
T2 sequence (Q9Y210 1-931): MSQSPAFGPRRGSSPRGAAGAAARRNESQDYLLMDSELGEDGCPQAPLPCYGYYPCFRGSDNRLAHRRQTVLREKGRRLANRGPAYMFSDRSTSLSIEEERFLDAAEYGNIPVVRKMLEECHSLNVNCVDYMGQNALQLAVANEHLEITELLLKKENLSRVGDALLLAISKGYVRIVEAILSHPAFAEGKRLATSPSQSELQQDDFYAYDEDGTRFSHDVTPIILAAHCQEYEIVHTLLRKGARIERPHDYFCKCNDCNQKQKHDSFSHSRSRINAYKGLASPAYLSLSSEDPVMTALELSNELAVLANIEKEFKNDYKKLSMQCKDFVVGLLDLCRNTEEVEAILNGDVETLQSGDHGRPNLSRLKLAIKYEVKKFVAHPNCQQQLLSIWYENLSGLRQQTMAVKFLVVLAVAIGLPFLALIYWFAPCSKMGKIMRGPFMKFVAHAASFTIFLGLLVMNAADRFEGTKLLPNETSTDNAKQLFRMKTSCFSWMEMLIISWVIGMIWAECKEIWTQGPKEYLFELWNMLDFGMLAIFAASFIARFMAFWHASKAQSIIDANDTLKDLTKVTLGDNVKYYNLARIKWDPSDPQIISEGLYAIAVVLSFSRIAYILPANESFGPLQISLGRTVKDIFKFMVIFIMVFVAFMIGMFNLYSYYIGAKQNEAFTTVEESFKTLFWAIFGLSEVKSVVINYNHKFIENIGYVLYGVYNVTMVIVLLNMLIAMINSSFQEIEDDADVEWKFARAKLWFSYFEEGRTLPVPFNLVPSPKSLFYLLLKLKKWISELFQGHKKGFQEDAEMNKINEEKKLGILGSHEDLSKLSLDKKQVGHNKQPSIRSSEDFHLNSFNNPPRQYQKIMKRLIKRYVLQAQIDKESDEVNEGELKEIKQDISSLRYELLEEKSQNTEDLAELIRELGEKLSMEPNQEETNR
The experiment is described as follows: TRPC6 fluorescence-based assay (Ca2+ flux assay in FLIPR format), cells overexpressing TRPC6. The class given is cell-based. The note with it: 5 μM of test compound, following Carbachol stimulation. In general terms: Calcium flux is commonly read through the fluorescence of an indicator in the cells.

One may read the inhibition as the share of the control response that was lost under treatment. A high value points to a strong effect.

Consider `c1ccc(Cc2nc3ccccc3n2CCCOc2ccccc2)cc1`, for which the inhibition at 5 µM at human TRPC5 was 85.9%; against human TRPC6, 92.5%.
Consider `CCN(CC)CCn1c(NCc2cccc(Br)c2)nc2ccccc21`, for which the inhibition at 5 µM was found to be 62.9% on human TRPC5 and 69.8% at human TRPC6.
For `CCCCCn1c(NCc2ccc(N(C)C)cc2)nc2ccccc21`, in that order: 62.7% and 81.9%.
For `CCN(CC)CCn1c(NCc2ccc(Cl)cc2)nc2ccccc21`, in that order: 62% and 57.1%.
For `CCCn1c(-c2ccc(Br)cc2)nc2ccccc21`, in that order: 61.4% and 82.8%.
On to `CCCCCCn1c(NCc2ccccc2O)nc2ccccc21`, for which the inhibition at 5 µM on human TRPC5 worked out at 61.3%; at human TRPC6, 21.9%.
For `COCc1ccccc1Cn1cnc2ccccc21`, in that order: 61.3% and 83.5%.
For `CCN(CC)c1ccc(CNc2nc3ccccc3n2CCN2CCCCC2)cc1`, in that order: 61.2% and 65.7%.
For `CC(C)CCn1c(-c2ccc(N)cc2)nc2ccccc21`, in that order: 61.1% and 27.2%.
Regarding `CCN(CC)CCn1c(NCc2ccc(OC)cc2OC)nc2ccccc21`, the inhibition at 5 µM at human TRPC5 is 60.9%; against human TRPC6, 43.5%.
Turning to `Cn1c(=O)c2c(ncn2CC(=O)OCCCC(c2ccc(F)cc2)c2ccc(F)cc2)n(C)c1=O`, the inhibition at 5 µM against human TRPC5 is 60%; on human TRPC6 it was 60.7%.
On the same counts, the results for `CCCCn1c(NCc2nc3ccccc3n2C)nc2ccccc21` are 59.5% and 30.4%.
On the same counts, the results for `COCCn1c(SCC(=O)Nc2cccc3ncccc23)nc2ccccc21` are 59.1% and 83.6%.
On the same counts, the results for `CCn1c(Cc2ccc(OC)c(OC)c2)nc2ccccc21` are 59% and 94%.
Regarding `O=C(Cn1c(NCCCO)nc2ccccc21)C12CC3CC(CC(C3)C1)C2`, the figures for the inhibition at 5 µM at human TRPC5 and against human TRPC6 were 58.2% and 28.4%, respectively.
On the same counts, the results for `COc1ccccc1CNc1nc2ccccc2n1C(C)C` are 57.9% and 53.9%.
On to `Cc1cccc(OCCn2c(Cc3ccccc3)nc3ccccc32)c1`, for which the results for the inhibition at 5 µM on human TRPC5 and against human TRPC6 were 56.4% and 52.9%, respectively.
`CCn1c(NC2CCCCC2)nc2ccccc21`: the inhibition at 5 µM against human TRPC5 was 55.5%; at human TRPC6, 9.58%.
For `CC(NCc1nc2ccccc2n1C)C12CC3CC(CC(C3)C1)C2` (stereo not drawn), the inhibition at 5 µM against human TRPC5 came to 55.2%; on human TRPC6 it was 69.7%.
On the same counts, the results for `Brc1cccc(CNc2nc3ccccc3n2CCN2CCCCC2)c1` are 55% and 51%.
On the same counts, the results for `COc1ccc(/C=N/c2nc3ccccc3n2Cc2ccc(C)cc2)cc1` are 53.4% and 41.5%.
For `COc1ccc(CNc2nc3ccccc3n2Cc2ccc(Cl)cc2)cc1OC`, the inhibition at 5 µM against human TRPC5 was found to be 53.4%; against human TRPC6, 31.3%.
On the same counts, the results for `Nc1nc2ccccc2n1Cc1ccc(Cl)c(Cl)c1` are 52.4% and 84.3%.
Turning to `Cc1ccc(Cn2c(CN3CCC(CN)C3)nc3ccccc32)cc1` (stereo not drawn), the inhibition at 5 µM against human TRPC5 was determined as 51.8%; against human TRPC6, 51%.
For `CCn1c(NCc2cc(C)ccc2O)nc2ccccc21`, in that order: 51.8% and 3.16%.
As to `CC(C)(C)NC(=O)Cn1c(NCc2ccccc2)nc2ccccc21`, the results for the inhibition at 5 µM against human TRPC5 and on human TRPC6 were 51% and 3.97%, respectively.
On the same counts, the results for `COc1ccc(Cc2nc3ccccc3n2C(C)c2ccccc2)cc1` (stereo not drawn) are 51% and 45%.
For `C=CCn1c(NCc2cccs2)nc2ccccc21`, in that order: 50.7% and 14.6%.
For `CCCCn1c(NCc2cccs2)nc2ccccc21` [drawing 80], in that order: 66.1% and 81.3%.
In the case of `CCCCn1c(NCc2cccs2)nc2ccccc21` [drawing 82], the “Inhibition of TRPC5 (A)” value at human TRPC5 (5 µM) was found to be 65.84%. For the same compound, the “Inhibition of TRPC6 (A)” value on human TRPC6 (5 µM) is 72.31%.
